{"source": "patent US20230383297A1", "about": "“NOVEL TARGETS FOR REACTIVATION OF PRADER-WILLI SYNDROME-ASSOCIATED GENES” (Duke University, priority 2020, published 2023)", "origin": "cited, not measured here", "tested_on": "PWS cells", "details": "also causes DNA demethylation genome-wide"}
{"smiles": "Nc1ncn([C@H]2C[C@H](O)[C@@H](CO)O2)c(=O)n1", "note": "[5-Aza-DC]", "values": [{"measurement": "maternal gene expression from the PWS locus", "value": "reactivate maternal gene expression from the PWS locus"}]}
